The values below come from patent CN105777727A, “2-噻吩吡啶类化合物及其用途” (Shenyang Sinochem Agrochemicals R&D Co Ltd, priority 2014, dated 2016).

Where only a bound is given, the exact number is not on record here.

For the experiment, the system named is cucumber anthracnose (黄瓜炭疽病). In words: In vivo protective activity against cucumber anthracnose (potted plants, inoculation 24 h after spraying).

For the compound `O=C(NCCc1ccc(F)cc1)c1ccc(-c2cccs2)nc1CCl` [24.3], the control effect by setting is: (6.5 mg/L) 98%; (25 mg/L) 100%; (100 mg/L) over 98%; (400 mg/L) 100%.
